Assays:
Assay type in all cases: biochemical, Campylobacter jejuni 11168
[1] = system: LegB (Cj1319, 4,6-dehydratase); experiment: LegB C4,6 dehydratase reaction with NDP-sugars; conditions: in the presence or absence of NAD(P)+
Description: (§1) Enzymatic reactions were performed for 4.5 h at 37° C., and then overnight at 25° C., with approximately 200 μg ml^−1 respective protein concentration using chemicals from Sigma (unless otherwise indicated). GDP-glucosamine biosynthesis. The ‘one-pot’ enzymatic synthesis of GDP-GlcN from Fru-6-P (I→IV) was accomplished using a 3 ml reaction containing His6PtmF, PtmAHis6, PgmLHis6, His6PtmE, 5 mM Fru-6-P (I), 10 mM L-Gln, 1 mM DTT, 5 mM MgCl2, 0.8 U ml^−1 pyrophosphatase, and 2.5 mM GTP in 25 mM Tris pH 7.5. Large-scale enzymatic synthesis of GDP-GlcN (IV) was accomplished using a 12 ml reaction containing 50 mM Tris pH 7.5, 1 mM GTP, 1 mM MgCl2, 0.8 U ml^−1 pyrophosphatase, 1.2 mM GlcN-1-P (III) and approximately 4.8 mg of His6PtmE. The large-scale enzymatic synthesis of GDP-GlcNAc was performed similar to that above, except the scale was increased five-fold and GlcNAc-1-P was used in place of GlcN-1-P (III). Assessment of His6PtmE substrate specificity was accomplished using 9 reactions, 80 μl each, containing 50 mM Tris pH 7.5, 2 mM MgCl2, 50 μg His6PtmE, and various combinations of 10 mM sugar-1-P (GalN-1-P, GlcN-1-P or GlcNAc-1-P) and 0.2 mM NTP (CTP, GTP, or TTP). Conversion of GDP-GlcN to GDP-GlcNAc. The His6GlmU reaction was performed using 1 mM GDP-GlcN (IV), 1.2 mM acetyl-CoA and His6GlmU in 25 mM sodium phosphate pH 7.8, 25 mM NaCl, 10 mM β-mercaptoethanol. In addition, a control reaction was performed containing 1 mM GlcN-1-P (III) instead of IV. Biosynthesis of legionaminic acid from GDP-GlcNAc. The stepwise enzymatic synthesis of intermediates or products was accomplished in 2 stages (V→VI→VII→VIII, and then VIII→IX→X) using 1 mM of V, 0.5 mM NAD, 0.8 mM PLP, 8 mM L-Glu, 1.2 mM acetyl-CoA, 1.2 mM PEP, LegBHis6, His6LegC, His6LegH, His6LegG, and His6LegI as appropriate, in 25 mM sodium phosphate pH 7.3, 25 mM NaCl. Assessment of His6LegG activity involved monitoring the reaction kinetics by ^1H NMR (see NMR spectroscopy) for 75 min using 0.75 mM GDP-2,4-diacetamido-2,4,6-trideoxy-α-D-Glc (VIII), 4 μg His6LegG in 200 μl of 25 mM sodium phosphate pH 7.3, 25 mM NaCl at 25° C. In addition, the substrate flexibility of His6LegG was assessed using a 300 μl reaction containing 40 μg His6LegG, 25 mM sodium phosphate pH 7.3, 25 mM NaCl, and 0.75 mM UDP-2,4-diacetamido-2,4,6-trideoxy-α-D-Glc, with incubation at 37° C. for 1.5 h, and then overnight at 25° C. Biosynthesis of CMP-legionaminic acid. The CMP-activation of legionaminic acid (X→XI) was performed using a 20 ml reaction containing approximately 0.2 mM of X, 50 mM MgCl2, 3 mM CTP, and 15 mg of LegFHis6 in 25 mM sodium phosphate pH 7.8, 25 mM NaCl, with incubation at 37° C. for 5 h, and then 25° C. for 72 h. Metabolite purification. Typically, reactions were passed through an Amicon Ultra-15 (10,000 molecular weight cut-off) or Ultra-4 (5,000 molecular weight cut-off) filter membrane before analysis. As required, NDP-sugar preparations (GDP-Glc, GDP-GlcN, GDP-GlcNAc, CDP-GlcNAc, TDP-GlcNAc, and CMP-Leg) were lyophilized and desalted/purified using a Superdex Peptide 10/300 GL (Amersham Biosciences) column in 25 mM ammonium bicarbonate, pH 7.9. For further purity, the NDP-sugar samples above were subjected to anion-exchange chromatography (Mono Q 4.6/100 PE, Amersham Biosciences) using ammonium bicarbonate pH 7.9. Quantification of NDP-sugar preparations was determined using the molar extinction coefficients of CMP (ε260=7,400), GDP (ε260=11,500), TDP (ε260=8,700), and UDP (ε260=10,000).
(§2) CE analysis was performed using either a P/ACE 5510 or P/ACE MDQ system (Beckman Instruments, Mississauga, Ont) with diode array detection. The capillaries were bare silica 50 μm×50 cm, with a detector at 50 cm, and the running buffer was 25 mM sodium tetraborate pH 9.4. Samples were introduced by pressure injection for 6 sec, and the separation was performed at 18 kV for 20 min. Peak integration was done using the Beckman P/ACE station software.

[2] = system: His6PtmE (Cj1329, nucleotidyltransferase); experiment: His6PtmE substrate specificity (sugar-1-P acceptors and NTP donors); conditions: for PtmE activity with sugar-1-P acceptor: 10 mM sugar-1-P, 0.2 mM NTP, 30 min at 37° C.; for PtmE NTP donor specificity with this sugar acceptor: NTP = CTP, GTP or TTP
Description: as §1, with “Enzymatic reactions were performed for 4.5 h at 37° C., and then overnight at 25° C., with approximately 200 μg ml^−1 respective protein concentration using chemicals from Sigma (unless otherwise indicated).” left out
as §2

[3] = molecular target: T1, His6LegG (Cj1328, NDP-sugar hydrolase/2-epimerase) (Campylobacter jejuni subsp. jejuni serotype O:2, UniProt Q0P8T0); experiment: His6LegG activity and substrate flexibility (1H NMR, CE)
T1 construct: made in house; host or cells: E. coli BL21[DE3]
Description: as §1, with “The CMP-activation of legionaminic acid (X→XI) was performed using a 20 ml reaction containing approximately 0.2 mM of X, 50 mM MgCl2, 3 mM CTP, and 15 mg of LegFHis6 in 25 mM sodium phosphate pH 7.8, 25 mM NaCl, with incubation at 37° C. for 5 h, and then 25° C. for 72 h. Metabolite purification. Typically, reactions were passed through an Amicon Ultra-15 (10,000 molecular weight cut-off) or Ultra-4 (5,000 molecular weight cut-off) filter membrane before analysis. As required, NDP-sugar preparations (GDP-Glc, GDP-GlcN, GDP-GlcNAc, CDP-GlcNAc, TDP-GlcNAc, and CMP-Leg) were lyophilized and desalted/purified using a Superdex Peptide 10/300 GL (Amersham Biosciences) column in 25 mM ammonium bicarbonate, pH 7.9. For further purity, the NDP-sugar samples above were subjected to anion-exchange chromatography (Mono Q 4.6/100 PE, Amersham Biosciences) using ammonium bicarbonate pH 7.9.” left out, “(ε260=10,000). […]” for “(ε260=10,000).”

T1 sequence (Q0P8T0 whole entry): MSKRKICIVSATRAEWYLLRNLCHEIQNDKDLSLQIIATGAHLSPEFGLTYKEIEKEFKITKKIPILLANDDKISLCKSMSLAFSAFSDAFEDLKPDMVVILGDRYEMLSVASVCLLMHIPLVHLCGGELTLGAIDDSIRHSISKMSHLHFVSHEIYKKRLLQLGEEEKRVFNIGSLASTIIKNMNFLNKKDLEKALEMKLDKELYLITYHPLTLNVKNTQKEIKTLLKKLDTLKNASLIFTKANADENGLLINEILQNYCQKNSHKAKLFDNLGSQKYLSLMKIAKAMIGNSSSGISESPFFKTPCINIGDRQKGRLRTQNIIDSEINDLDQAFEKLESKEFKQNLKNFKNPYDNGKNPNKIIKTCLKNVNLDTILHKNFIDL

CC(=O)NC1C(OP(=O)(O)OP(=O)(O)OCC2OC(n3ccc(N)nc3=O)C(O)C2O)OC(CO)C(O)C1O (stereo not shown) [CDP-GlcNAc, CDP-N-acetyl-glucosamine]
LegB reaction product formation [1]: did not yield discernable product

N[C@H]1C(OP(=O)(O)O)O[C@H](CO)[C@H](O)[C@@H]1O (stereo partly shown) [GalN-1-P]
PtmE activity with sugar-1-P acceptor [2]: no activity was observed

O=P(O)(O)O[C@H]1O[C@H](CO)[C@@H](O)[C@H](O)[C@H]1O [Glc-1-P, glucose-1-phosphate]
PtmE activity with sugar-1-P acceptor [2]: activity was observed

CC(=O)N[C@H]1[C@@H](OP(=O)(O)O)O[C@H](CO)[C@@H](O)[C@@H]1O [GlcNAc-1-P, N-acetyl-α-D-glucosamine-1-phosphate]
PtmE activity with sugar-1-P acceptor [2]: activity was observed | PtmE NTP donor specificity with this sugar acceptor [2]: exhibited promiscuity with respect to activator NTP donors

N[C@H]1[C@@H](OP(=O)(O)O)O[C@H](CO)[C@@H](O)[C@@H]1O [III, α-D-glucosamine-1-phosphate]
PtmE activity with sugar-1-P acceptor [2]: activity was observed | PtmE NTP donor specificity with this sugar acceptor [2]: absolutely specific for GTP

CC(=O)NC1C(OP(=O)(O)OP(=O)(O)OCC2OC(n3cc(C)c(=O)[nH]c3=O)CC2O)OC(CO)C(O)C1O (stereo not shown) [TDP-GlcNAc, TDP-N-acetyl-glucosamine]
LegB reaction product formation [1]: did not yield discernable product

Cc1cn([C@H]2C[C@H](O)[C@@H](COP(=O)(O)OP(=O)(O)O[C@H]3O[C@H](CO)[C@@H](O)[C@H](O)[C@H]3O)O2)c(=O)[nH]c1=O [TDP-Glc]
LegB reaction product formation [1]: did not yield discernable product

CC(=O)N[C@H]1[C@@H](OP(=O)(O)OP(=O)(O)OC[C@H]2O[C@@H](n3ccc(=O)[nH]c3=O)[C@H](O)[C@@H]2O)O[C@H](C)[C@@H](NC(C)=O)[C@@H]1O [UDP-2,4-diacetamido-2,4,6-trideoxy-α-D-glucose, reference compound]
NDP removal by LegG ([3]; quantity of LegG increased 10-fold, 90 min 37° C. then 16 h 25° C., CE): UDP removal was observed | formation of IX by LegG ([3]; similar conditions (4 μg LegG)): IX was not observed

CC(=O)N[C@H]1[C@@H](OP(=O)(O)OP(=O)(O)OC[C@H]2O[C@@H](n3ccc(=O)[nH]c3=O)[C@H](O)[C@@H]2O)O[C@H](CO)[C@@H](O)[C@@H]1O [UDP-GlcNAc, UDP-N-acetyl-α-D-glucosamine]
LegB reaction product formation [1]: did not yield discernable product

CC(=O)N[C@H]1[C@@H](OP(=O)(O)OP(=O)(O)OC[C@H]2O[C@@H](n3cnc4c(=O)[nH]c(N)nc43)[C@H](O)[C@@H]2O)O[C@H](C)[C@@H](NC(C)=O)[C@@H]1O [VIII, GDP-2,4-diacetamido-2,4,6-trideoxy-α-D-glucose]
time to near completion of formation of IX by LegG ([3]; 4 μg LegG, 0.75 mM substrate, 25° C., in-tube 1H NMR): ≤ 75 min

Reference: patent US9157105B2, “Biosynthesis of CMP-legionaminic acid from fructose-6-P, and respective pathway intermediates, using novel GDP-linked precursors” (priority 2008, dated 2015)
